From patent publication US10822315B2, “5-benzylidene-4-oxazolidinones” (NORTH CAROLINA STATE UNIVERSITY, priority 2016, dated 2020)

Columns and labels:
Format in all cases: cell-based, Staphylococcus aureus
MRSA ATCC BAA-44 = assay: Biofilm dispersion assay (crystal violet, pre-formed biofilm); details: for % dispersion of pre-formed biofilm: 40 μM; for % dispersion of pre-formed biofilm at 5 µM: MRSA ATCC BAA 44; for IC50: MRSA ATCC BAA-44
Procedure: (§1) General Information. Methicillin-resistant Staphylococcus aureus (MRSA) strains were obtained from the Laboratory of Professor Christian Melander (NCSU) ATCC (33591, BAA 44, BAA 1685, BAA 1770, BAA 43 300) and colonies were grown on solid media as instructed. Mueller-Hinton broth (MHB, 211443-BD), tryptic soy broth (TSB, Remel: R455052) and D-glucose (CAS: 492-62-6) were purchased from Fisher Scientific. Tryptic soy agar (TSA, cat. #22091) and Linezolid (cat. # P70014) were purchased from Sigma-Aldrich. Bacteria for biofilm inhibition and dispersion assays were cultured overnight in TSBG (tryptic soy broth with 0.5% glucose supplement). All assays were run in duplicate and repeated at least two separate times for MIC assays and at least four separate times for biofilm inhibition and dispersion assays. All compounds were dissolved molecular biology grade DMSO as 100 mM stock solutions and further diluted to 10 and 1 mM stock solutions as needed. Optical densities were measured using a Thermo Scientific Genesys 20 spectrophotometer. Data for biofilm inhibition and dispersion assays was collected using a BioTek ELx808 Microplate Reader. All graphs were generated and analyzed using GraphPad Prism 7.
(§2) Biofilm Dispersion Assay. Studies were performed using the standard method described in J. J. Richards, T. E. Ballard and C. Melander, Org Biomol Chem, 2008, 6, 1356-1363. Briefly, dispersion assays were performed by taking an overnight culture of bacterial strain and subculturing it at an OD600 of 0.01 into the necessary growth liquid medium. The resulting bacterial suspension was aliquoted (100 μL) into the wells of a 96-well PVC microtiter plate. Plates were then wrapped in GLAD Press n' Seal followed by an incubation under stationary conditions at an ambient temperature. After 24 hours, the media was discarded from the wells and the plates were washed thoroughly with tap water. Predetermined concentrations of the test compound were then made in the same medium used to initially grow the biofilms and then aliquoted (100 μL) into the wells of the 96-well PVC microtiter plate with the established biofilms. Plates were then wrapped in GLAD Press n'Seal and incubated under stationary conditions at 37° C. After 24 hours, the media was discarded from the wells and the plates were washed thoroughly with tap water. Plates were then stained with 100 μL of 0.1% solution of crystal violet (CV) and then incubated at room temperature for 30 minutes. Plates were then washed with tap water again and the remaining stain was solubilized with 200 μL of 95% ethanol. Biofilm dispersion was quantitated by measuring the OD540 for each well by transferring 125 μL of the solubilized CV stain into a polystyrene microtiter dish for analysis. Biofilm inhibition was quantified by measuring the OD540 of each well and calculated as a percentage of the control (no compound), a negative control lane wherein no biofilm was formed served as a background and was subtracted out.
(§3) Percent dispersion was then plotted against concentration in Prism 7. Each of the four experiments were plotted separately and analyzed by a normalized nonlinear regression. The IC50 values reported represent an arithmetic mean of the four IC50 values. Biofilm data represent four separate experiments, with each experiment performed in duplicate (average of 8 data points for each concentration tested, unless otherwise noted)

MRSA Strain 43300 = assay: Biofilm dispersion assay (crystal violet); details: for % Biofilm Dispersion (5/40 μM): MRSA strain 43300
Procedure: as §1, §2, §3

MRSA Strain 1770 = assay: Biofilm dispersion assay (crystal violet)
Procedure: as §1, §2, §3

MRSA Strain 1685 = assay: Biofilm dispersion assay (crystal violet)
Procedure: as §1, §2, §3

Compound	% dispersion of pre-formed biofilm (MRSA ATCC BAA-44) [%]	% dispersion of pre-formed biofilm at 5 µM (MRSA ATCC BAA-44; Staphylococcus aureus) [%]	IC50 (MRSA ATCC BAA-44; Staphylococcus aureus) [µM]	% Biofilm Dispersion (5/40 μM) (MRSA Strain 43300; 5 μM)	biofilm dispersion activity (in words) (MRSA Strain 43300; MRSA strain 43 300)	% Biofilm Dispersion (5/40 μM) (MRSA Strain 1770; 5 μM)	% Biofilm Dispersion (5/40 μM) (MRSA Strain 1685; 5 μM)	IC50 (MRSA ATCC BAA-44) [µM]	% Biofilm Dispersion (5/40 μM) (MRSA Strain 43300; 40 μM) [%]	% Biofilm Dispersion (5/40 μM) (MRSA Strain 1770; 40 μM) [%]	% Biofilm Dispersion (5/40 μM) (MRSA Strain 1685; 40 μM) [%]
O=C1NC(C(Cl)(Cl)Cc2ccccc2)O/C1=C\c1ccc(C(F)(F)F)cc1 (centres unmarked) [Compound 2, (Z)-2-(1,1-dichloro-2-phenylethyl)-5-(4-(trifluoromethyl)benzylidene)oxazolidin-4-one]	69	57	4.3	37/− %	no dose-dependent dispersion activity	29/− %	15/− %	–	–	–	–
CCCCC(Cl)(Cl)C1NC(=O)/C(=C/c2ccc(C(F)(F)F)cc2)O1 (centres unmarked) [Compound 1, (Z)-2-(1,1-dichloropentyl)-5-(4-(trifluoromethyl)benzylidene)oxazolidin-4-one]	87	59	4.7	23%	–	52%	24%	5.7	63	46	61
